In PMC9940855, “First-in-Class Dual Hybrid Carbonic Anhydrase Inhibitors and Transient Receptor Potential Vanilloid 1 Agonists Revert Oxaliplatin-Induced Neuropathy” (Journal of Medicinal Chemistry, 2023):

What was measured:
hCA IX = biological target: T1, hCA IX (Homo sapiens, UniProt Q16790); assay type: biochemical
T1 construct: made in house

hCA I = hCA I (Homo sapiens, UniProt P00915); conditions: read-out: KI hCA I; stopped-flow CO2 hydrase assay; mean from three different assays, errors ±5–10%
hCA I, sequence (P00915 whole entry): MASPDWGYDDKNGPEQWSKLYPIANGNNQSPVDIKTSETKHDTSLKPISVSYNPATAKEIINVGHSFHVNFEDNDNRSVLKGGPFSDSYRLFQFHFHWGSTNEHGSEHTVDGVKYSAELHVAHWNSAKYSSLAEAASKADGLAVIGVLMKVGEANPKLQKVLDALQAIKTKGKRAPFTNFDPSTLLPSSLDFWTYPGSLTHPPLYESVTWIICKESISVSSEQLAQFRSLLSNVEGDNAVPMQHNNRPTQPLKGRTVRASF

hCA II = hCA II (Homo sapiens, UniProt P00918); conditions: read-out: KI hCA II; stopped-flow CO2 hydrase assay; mean from three different assays, errors ±5–10%
hCA VII = hCA VII (Homo sapiens, UniProt P43166); conditions: read-out: KI hCA VII; stopped-flow CO2 hydrase assay; mean from three different assays, errors ±5–10%
hCA VII, sequence (P43166 whole entry): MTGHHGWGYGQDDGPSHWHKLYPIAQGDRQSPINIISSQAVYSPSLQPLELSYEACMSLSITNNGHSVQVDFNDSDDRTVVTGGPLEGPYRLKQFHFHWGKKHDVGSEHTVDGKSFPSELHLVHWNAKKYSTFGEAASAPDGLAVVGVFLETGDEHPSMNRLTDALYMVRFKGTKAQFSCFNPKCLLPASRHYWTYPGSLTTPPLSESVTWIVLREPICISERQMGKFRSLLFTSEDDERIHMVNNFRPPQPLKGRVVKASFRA

hCA XII = hCA XII (Homo sapiens, UniProt O43570); conditions: read-out: KI hCA XII; stopped-flow CO2 hydrase assay; mean from three different assays, errors ±5–10%
hCA XII, sequence (O43570 25-354): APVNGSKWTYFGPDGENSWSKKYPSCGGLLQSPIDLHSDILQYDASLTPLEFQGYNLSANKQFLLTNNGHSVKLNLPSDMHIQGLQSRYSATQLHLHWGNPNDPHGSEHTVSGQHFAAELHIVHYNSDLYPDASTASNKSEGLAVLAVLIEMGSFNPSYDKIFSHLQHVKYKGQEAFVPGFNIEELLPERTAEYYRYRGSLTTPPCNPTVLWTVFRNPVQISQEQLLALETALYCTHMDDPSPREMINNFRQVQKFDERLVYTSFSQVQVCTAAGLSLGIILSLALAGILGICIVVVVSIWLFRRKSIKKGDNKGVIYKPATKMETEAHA

hCA IV = hCA IV (Homo sapiens, UniProt P22748); conditions: read-out: KI hCA IV; stopped-flow CO2 hydrase assay; mean from three different assays, errors ±5–10%
hCA IV, sequence (P22748 19-312): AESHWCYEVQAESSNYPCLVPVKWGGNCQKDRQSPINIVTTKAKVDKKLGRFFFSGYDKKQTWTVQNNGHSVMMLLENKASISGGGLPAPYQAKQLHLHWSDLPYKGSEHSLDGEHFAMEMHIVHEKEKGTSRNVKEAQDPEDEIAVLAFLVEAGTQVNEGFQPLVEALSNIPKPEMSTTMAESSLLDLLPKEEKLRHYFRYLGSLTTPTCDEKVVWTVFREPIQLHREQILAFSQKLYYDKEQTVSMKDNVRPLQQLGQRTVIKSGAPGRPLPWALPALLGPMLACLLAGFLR

| Ki (hCA IX) | Ki (hCA I) | Ki (hCA II) | Ki (hCA VII) | Ki (hCA XII) | Ki (hCA IV) | SMILES |
| --- | --- | --- | --- | --- | --- | --- |
| 67.5 nM | 800 nM | 525 nM | 8.2 nM | 8.5 nM | – | NS(=O)(=O)c1ccc(N2CC[C@H](NC(=O)Nc3ccc([N+](=O)[O-])cc3)C2)nc1 [19b, (S)-6-(3-(3-(4-Nitrophenyl)ureido)pyrrolidin-1-yl)pyridine-3-sulfonamide] |
| – | – | 482 nM | 14 nM | 8.2 nM | 8200 nM | NS(=O)(=O)c1ccc(N2CC[C@H](NC(=O)Nc3c(F)cc(F)cc3Br)C2)nc1 [22b, (S)-6-(3-(3-(2-Bromo-4,6-difluorophenyl)ureido)pyrrolidin-1-yl)pyridine-3-sulfonamide] |
| 9.7 nM | 89.2 nM | 38.5 nM | 46.4 nM | – | 911 nM | NS(=O)(=O)c1ccc(N2CC[C@H](NC(=O)NS(=O)(=O)c3ccccc3Cl)C2)nc1 [25b, (S)-6-(3-(3-((2-Chlorophenyl)sulfonyl)ureido)pyrrolidin-1-yl)pyridine-3-sulfonamide] |
| – | 306 nM | 8.9 nM | – | 8.9 nM | – | NS(=O)(=O)c1cccc(NC(=O)N[C@H]2CCN(c3ccc(C(F)(F)F)cn3)C2)c1 [46b, (S)-3-(3-(1-(5-(Trifluoromethyl)pyridin-2-yl)pyrrolidin-3-yl)ureido)benzenesulfonamide] |
| 32 nM | 80.6 nM | 42.2 nM | 7.8 nM | 3.9 nM | 849 nM | NS(=O)(=O)c1ccc(N2CC[C@@H](NC(=S)Nc3ccc(C4c5ccc(O)cc5Oc5cc(O)ccc54)c(C(=O)O)c3)C2)nc1 [17a, (R)-2-(3,6-Dihydroxy-9H-xanthen-9-yl)-5-(3-(1-(5-sulfamoylpyridin-2-yl)pyrrolidin-3-yl)thioureido)benzoic Acid] |
| 7.2 nM | 68.7 nM | 31.3 nM | – | 41 nM | 843 nM | NS(=O)(=O)c1ccc(N2CC[C@H](NC(=S)Nc3ccccc3F)C2)nc1 [21b, (S)-6-(3-(3-(2-Fluorophenyl)thioureido)pyrrolidin-1-yl)pyridine-3-sulfonamide] |
| – | – | 35.3 nM | – | 48.7 nM | – | NS(=O)(=O)c1ccc(N2CC[C@H](NC(=O)Nc3ccc(C(F)(F)F)cc3)C2)nc1 [20b, (S)-6-(3-(3-(4-(Trifluoromethyl)phenyl)ureido)pyrrolidin-1-yl)pyridine-3-sulfonamide] |
| – | – | 409 nM | – | 44.2 nM | – | NS(=O)(=O)c1ccc(N2CC[C@@H](NC(=O)Nc3ccc(C(F)(F)F)cc3)C2)nc1 [20a, (R)-6-(3-(3-(4-(Trifluoromethyl)phenyl)ureido)pyrrolidin-1-yl)pyridine-3-sulfonamide] |
| 9.2 nM | 72.3 nM | 15.4 nM | 30.1 nM | – | 704 nM | NS(=O)(=O)c1ccc(N2CC[C@@H](NC(=O)NS(=O)(=O)c3ccccc3Cl)C2)nc1 [25a, (R)-6-(3-(3-((2-Chlorophenyl)sulfonyl)ureido)pyrrolidin-1-yl)pyridine-3-sulfonamide] |
| 54.9 nM | 625 nM | – | 8.3 nM | 9.4 nM | 2500 nM | NS(=O)(=O)c1ccc(N2CC[C@H](NC(=O)Nc3cc(C(F)(F)F)cc(C(F)(F)F)c3)C2)nc1 [16b, (S)-6-(3-(3-(3,5-Bis(trifluoromethyl)phenyl)ureido)pyrrolidin-1-yl)pyridine-3-sulfonamide] |
| 7.9 nM | 413 nM | – | 14.2 nM | – | – | NS(=O)(=O)c1cccc(NC(=S)N[C@H]2CCN(c3ccc(C(F)(F)F)cn3)C2)c1 [40b, (S)-3-(3-(1-(5-(Trifluoromethyl)pyridin-2-yl)pyrrolidin-3-yl)thioureido)benzenesulfonamide] |
| 1440 nM | 903 nM | – | 40.8 nM | 37.9 nM | 5160 nM | NS(=O)(=O)c1ccc(N2CC[C@@H](NC(=O)Nc3cc(C(F)(F)F)cc(C(F)(F)F)c3)C2)nc1 [16a, (R)-6-(3-(3-(3,5-Bis(trifluoromethyl)phenyl)ureido)pyrrolidin-1-yl)pyridine-3-sulfonamide] |

Further lines, the compound ahead of its results:

| SMILES | Ki (hCA IX) | Ki (hCA I) | Ki (hCA II) | Ki (hCA VII) | Ki (hCA XII) | Ki (hCA IV) |
| --- | --- | --- | --- | --- | --- | --- |
| NS(=O)(=O)c1ccc(N2CC[C@@H](NC(=S)Nc3ccc(F)cc3)C2)nc1 [8a, (R)-6-(3-(3-(4-Fluorophenyl)thioureido)pyrrolidin-1-yl)pyridine-3-sulfonamide] | 30.8 nM | – | – | 8.6 nM | 39.5 nM | 3120 nM |
| NS(=O)(=O)c1ccc(N2CC[C@H](NC(=O)Nc3ccccc3F)C2)nc1 [11b, (S)-6-(3-(3-(2-Fluorophenyl)ureido)pyrrolidin-1-yl)pyridine-3-sulfonamide] | – | 476 nM | – | 11.6 nM | 43.9 nM | – |
| NS(=O)(=O)c1ccc(N2CC[C@H](NC(=O)Nc3ccc(Cl)c(Cl)c3)C2)nc1 [14b, (S)-6-(3-(3-(3,4-Dichlorophenyl)ureido)pyrrolidin-1-yl)pyridine-3-sulfonamide] | – | – | 556 nM | 12.1 nM | 44.6 nM | 2530 nM |
| NS(=O)(=O)c1ccc(N2CCC(NC(=O)Nc3ccc(Cl)c(C(F)(F)F)c3)C2)nc1 (stereo in doubt) [10b, (R)-6-(3-(3-(4-Chloro-3-(trifluoromethyl)phenyl)ureido)pyrrolidin-1-yl)pyridine-3-sulfonamide] | 77.5 nM | 707 nM | – | 15.6 nM | – | 8520 nM |
| NS(=O)(=O)c1ccc(N2CC[C@H](NC(=O)Nc3ccc(Oc4ccccc4)cc3)C2)nc1 [13b, (S)-6-(3-(3-(4-Phenoxyphenyl)ureido)pyrrolidin-1-yl)pyridine-3-sulfonamide] | 89.8 nM | – | – | 52 nM | 89.9 nM | – |
| NS(=O)(=O)c1ccc(N2CC[C@H](NC(=O)Nc3ccccc3Cl)C2)nc1 [12b, (S)-6-(3-(3-(2-Chlorophenyl)ureido)pyrrolidin-1-yl)pyridine-3-sulfonamide] | 22.9 nM | 393 nM | – | 0.9 nM | 41.7 nM | 2030 nM |
| NS(=O)(=O)c1ccc(N2CC[C@H](NC(=S)Nc3ccccc3)C2)nc1 [9b, (S)-6-(3-(3-Phenylthioureido)pyrrolidin-1-yl)pyridine-3-sulfonamide] | 54.1 nM | 321 nM | – | 11.6 nM | 23.4 nM | 9480 nM |
| NS(=O)(=O)c1ccc(N2CC[C@@H](NC(=S)Nc3ccccc3)C2)nc1 [9a, (R)-6-(3-(3-Phenylthioureido)pyrrolidin-1-yl)pyridine-3-sulfonamide] | 25.5 nM | 164 nM | – | 8.5 nM | 59.3 nM | 3730 nM |
| NS(=O)(=O)c1ccc(N2CC[C@H](NC(=S)Nc3ccc(F)cc3)C2)nc1 [8b, (S)-6-(3-(3-(4-Fluorophenyl)thioureido)pyrrolidin-1-yl)pyridine-3-sulfonamide] | 27.3 nM | – | – | 2.6 nM | 35.4 nM | 2700 nM |
| NS(=O)(=O)c1ccc(N2CC[C@H](NC(=O)Nc3ccc(F)cc3)C2)nc1 [7b, (S)-6-(3-(3-(4-Fluorophenyl)ureido)pyrrolidin-1-yl)pyridine-3-sulfonamide] | 20.2 nM | – | 187 nM | 12.1 nM | 50.3 nM | 8240 nM |
